In patent publication US8957238B2, “Process for preparing malathion for pharmaceutical use” (priority 2005, dated 2015):

Test: Storage stability of dry pharmaceutical grade malathion, HPLC (Example 18)
Assay type: physicochemical
Protocol: Purity was determined using a high performance liquid chromatography (HPLC) instrument with a variable wavelength detector.
Isomalathion content was determined using a high performance liquid chromatography (HPLC) instrument with a variable wavelength detector.
Four (4) samples of Dry Pharmaceutical Grade Malathion from Example 16, each weighing about 3-3.5 grams, were placed in separate clear glass bottles closed by a cap coated with polytetrafluoroethylene (PTFE). Each bottle was then inserted into a separate black polyethylene (PE) bag, which was tightly closed with a strip fastener. Each bag was then placed in a separate carton box.
The four (4) samples were stored for three (3) months under the following conditions: • Sample One: 40° C.±2° C. and 75%±5% relative humidity, • Sample Two: 30° C.±2° C. and 60%±5% relative humidity, • Sample Three: 25° C.±2° C. and 60%±5% relative humidity, and • Sample Four: 5° C.±3° C. and ambient relative humidity
The purity of each sample was determined after storage for one (1), two (2), and three (3) months using HPLC as set forth above (See Methodology and Protocols: End-of-Process Determination of Assay, Purity, and Impurities Other Than Isomalathion, End-of-Process Determination of Isomalathion).

[1] = Storage at 5° C. ± 3° C. and ambient relative humidity
[2] = Storage at 25° C. ± 2° C. and 60% ± 5% relative humidity
[3] = Storage at 30° C. ± 2° C. and 60% ± 5% relative humidity
[4] = Storage at 40° C. ± 2° C. and 75% ± 5% relative humidity

CCOC(=O)CC(SP(=S)(OC)OC)C(=O)OCC (stereo not shown) [[(dimethoxyphosphinothioyl)thio]butanedioic acid diethyl ester]
Diethyl fumarate Quantity After 1 Month [1]: <0.01 (LOD) % w/w
Diethyl fumarate Quantity After 2 Months [1]: <0.01 (LOD) % w/w
Diethyl fumarate Quantity After 3 Months [1]: <0.01 (LOD) % w/w
Dimethyl malathion Quantity After 1 Month [1]: <0.02 (LOD) % w/w
Dimethyl malathion Quantity After 2 Months [1]: <0.02 (LOD) % w/w
Dimethyl malathion Quantity After 3 Months [1]: <0.02 (LOD) % w/w
Isomalathion Quantity After 1 Month [1]: <0.02 (LOD) % w/w
Isomalathion Quantity After 2 Months [1]: <0.03 (LOQ) % w/w
Isomalathion Quantity After 3 Months [1]: <0.03 (LOQ) % w/w
Malaoxon Quantity After 1 Month [1]: <0.05 (LOD) % w/w
Malaoxon Quantity After 2 Months [1]: <0.05 (LOD) % w/w
Malaoxon Quantity After 3 Months [1]: <0.05 (LOD) % w/w
MeOOSPO Quantity After 1 Month [1]: <0.04 (LOD) % w/w
MeOOSPO Quantity After 2 Months [1]: <0.04 (LOD) % w/w
MeOOSPO Quantity After 3 Months [1]: <0.04 (LOD) % w/w
MeOOSPS Quantity After 1 Month [1]: 0.1 % w/w
MeOOSPS Quantity After 2 Months [1]: 0.1 % w/w
MeOOSPS Quantity After 3 Months [1]: 0.1 % w/w
MeOSSPO Quantity After 1 Month [1]: <0.02 (LOD) % w/w
MeOSSPO Quantity After 2 Months [1]: <0.02 (LOD) % w/w
MeOSSPO Quantity After 3 Months [1]: <0.02 (LOD) % w/w
Methyl malathion Quantity After 1 Month [1]: 0.05 % w/w
Methyl malathion Quantity After 2 Months [1]: 0.06 % w/w
Methyl malathion Quantity After 3 Months [1]: 0.06 % w/w
O,O-Me, Et Malathion analog Quantity After 1 Month [1]: 0.07 % w/w
O,O-Me, Et Malathion analog Quantity After 2 Months [1]: 0.07 % w/w
O,O-Me, Et Malathion analog Quantity After 3 Months [1]: 0.07 % w/w
Tetraethyl dithiodisuccinate Quantity After 1 Month [1]: 0.06 % w/w
Tetraethyl dithiodisuccinate Quantity After 2 Months [1]: 0.06 % w/w
Tetraethyl dithiodisuccinate Quantity After 3 Months [1]: 0.06 % w/w
Unknown (RRT = 0.38) Quantity After 1 Month [1]: 0.04 % w/w
Unknown (RRT = 0.38) Quantity After 2 Months [1]: 0.04 % w/w
Unknown (RRT = 0.38) Quantity After 3 Months [1]: 0.04 % w/w
Diethyl fumarate Quantity After 1 Month [2]: <0.01 (LOD) % w/w
Diethyl fumarate Quantity After 2 Months [2]: <0.01 (LOD) % w/w
Diethyl fumarate Quantity After 3 Months [2]: <0.01 (LOD) % w/w
Dimethyl malathion Quantity After 1 Month [2]: <0.02 (LOD) % w/w
Dimethyl malathion Quantity After 2 Months [2]: <0.02 (LOD) % w/w
Dimethyl malathion Quantity After 3 Months [2]: <0.02 (LOD) % w/w
Isomalathion Quantity After 1 Month [2]: <0.03 (LOQ) % w/w
Isomalathion Quantity After 2 Months [2]: <0.02 (LOD) % w/w
Isomalathion Quantity After 3 Months [2]: 0.04 % w/w
Malaoxon Quantity After 1 Month [2]: <0.05 (LOD) % w/w
Malaoxon Quantity After 2 Months [2]: <0.05 (LOD) % w/w
Malaoxon Quantity After 3 Months [2]: <0.05 (LOD) % w/w
MeOOSPO Quantity After 1 Month [2]: <0.04 (LOD) % w/w
MeOOSPO Quantity After 2 Months [2]: <0.04 (LOD) % w/w
MeOOSPO Quantity After 3 Months [2]: <0.04 (LOD) % w/w
MeOOSPS Quantity After 1 Month [2]: 0.1 % w/w
MeOOSPS Quantity After 2 Months [2]: 0.1 % w/w
MeOOSPS Quantity After 3 Months [2]: 0.1 % w/w
MeOSSPO Quantity After 1 Month [2]: <0.02 (LOD) % w/w
MeOSSPO Quantity After 2 Months [2]: <0.02 (LOD) % w/w
MeOSSPO Quantity After 3 Months [2]: <0.02 (LOD) % w/w
Methyl malathion Quantity After 1 Month [2]: 0.05 % w/w
Methyl malathion Quantity After 2 Months [2]: 0.05 % w/w
Methyl malathion Quantity After 3 Months [2]: 0.06 % w/w
O,O-Me, Et Malathion analog Quantity After 1 Month [2]: 0.08 % w/w
O,O-Me, Et Malathion analog Quantity After 2 Months [2]: 0.07 % w/w
O,O-Me, Et Malathion analog Quantity After 3 Months [2]: 0.07 % w/w
Tetraethyl dithiodisuccinate Quantity After 1 Month [2]: 0.06 % w/w
Tetraethyl dithiodisuccinate Quantity After 2 Months [2]: 0.06 % w/w
Tetraethyl dithiodisuccinate Quantity After 3 Months [2]: 0.06 % w/w
Unknown (RRT = 0.27) Quantity After 1 Month [2]: <0.02 (LOD) % w/w
Unknown (RRT = 0.27) Quantity After 2 Months [2]: <0.02 (LOD) % w/w
Unknown (RRT = 0.27) Quantity After 3 Months [2]: 0.06 % w/w
Unknown (RRT = 0.38) Quantity After 1 Month [2]: 0.04 % w/w
Unknown (RRT = 0.38) Quantity After 2 Months [2]: 0.04 % w/w
Unknown (RRT = 0.38) Quantity After 3 Months [2]: 0.04 % w/w
Diethyl fumarate Quantity After 1 Month [3]: <0.01 (LOD) % w/w
Diethyl fumarate Quantity After 2 Months [3]: <0.01 (LOD) % w/w
Diethyl fumarate Quantity After 3 Months [3]: <0.01 (LOD) % w/w
Dimethyl malathion Quantity After 1 Month [3]: <0.02 (LOD) % w/w
Dimethyl malathion Quantity After 2 Months [3]: <0.02 (LOD) % w/w
Dimethyl malathion Quantity After 3 Months [3]: <0.02 (LOD) % w/w
Isomalathion Quantity After 1 Month [3]: 0.03 % w/w
Isomalathion Quantity After 2 Months [3]: 0.04 % w/w
Isomalathion Quantity After 3 Months [3]: 0.06 % w/w
Malaoxon Quantity After 1 Month [3]: <0.05 (LOD) % w/w
Malaoxon Quantity After 2 Months [3]: <0.05 (LOD) % w/w
Malaoxon Quantity After 3 Months [3]: <0.05 (LOD) % w/w
MeOOSPO Quantity After 1 Month [3]: <0.04 (LOD) % w/w
MeOOSPO Quantity After 2 Months [3]: <0.04 (LOD) % w/w
MeOOSPO Quantity After 3 Months [3]: <0.04 (LOD) % w/w
MeOOSPS Quantity After 1 Month [3]: 0.1 % w/w
MeOOSPS Quantity After 2 Months [3]: 0.1 % w/w
MeOOSPS Quantity After 3 Months [3]: 0.1 % w/w
MeOSSPO Quantity After 1 Month [3]: <0.02 (LOD) % w/w
MeOSSPO Quantity After 2 Months [3]: <0.02 (LOD) % w/w
MeOSSPO Quantity After 3 Months [3]: <0.02 (LOD) % w/w
Methyl malathion Quantity After 1 Month [3]: 0.05 % w/w
Methyl malathion Quantity After 2 Months [3]: 0.06 % w/w
Methyl malathion Quantity After 3 Months [3]: 0.06 % w/w
O,O-Me, Et Malathion analog Quantity After 1 Month [3]: 0.08 % w/w
O,O-Me, Et Malathion analog Quantity After 2 Months [3]: 0.08 % w/w
O,O-Me, Et Malathion analog Quantity After 3 Months [3]: 0.07 % w/w
Tetraethyl dithiodisuccinate Quantity After 1 Month [3]: 0.06 % w/w
Tetraethyl dithiodisuccinate Quantity After 2 Months [3]: 0.05 % w/w
Tetraethyl dithiodisuccinate Quantity After 3 Months [3]: 0.06 % w/w
Unknown (RRT = 0.06) Quantity After 1 Month [3]: <0.02 (LOD) % w/w
Unknown (RRT = 0.06) Quantity After 2 Months [3]: <0.02 (LOD) % w/w
Unknown (RRT = 0.06) Quantity After 3 Months [3]: 0.04 % w/w
Unknown (RRT = 0.27) Quantity After 1 Month [3]: <0.02 (LOD) % w/w
Unknown (RRT = 0.27) Quantity After 2 Months [3]: 0.07 % w/w
Unknown (RRT = 0.27) Quantity After 3 Months [3]: 0.15 % w/w
Unknown (RRT = 0.38) Quantity After 1 Month [3]: 0.04 % w/w
Unknown (RRT = 0.38) Quantity After 2 Months [3]: 0.04 % w/w
Unknown (RRT = 0.38) Quantity After 3 Months [3]: 0.04 % w/w
Diethyl fumarate Quantity After 1 Month [4]: <0.01 (LOD) % w/w
Diethyl fumarate Quantity After 2 Months [4]: <0.01 (LOD) % w/w
Diethyl fumarate Quantity After 3 Months [4]: <0.02 (LOQ) % w/w
Dimethyl malathion Quantity After 1 Month [4]: <0.02 (LOD) % w/w
Dimethyl malathion Quantity After 2 Months [4]: <0.02 (LOD) % w/w
Dimethyl malathion Quantity After 3 Months [4]: <0.02 (LOD) % w/w
Isomalathion Quantity After 1 Month [4]: 0.06 % w/w
Isomalathion Quantity After 2 Months [4]: 0.1 % w/w
Isomalathion Quantity After 3 Months [4]: 0.1 % w/w
Malaoxon Quantity After 1 Month [4]: <0.05 (LOD) % w/w
Malaoxon Quantity After 2 Months [4]: <0.05 (LOD) % w/w
Malaoxon Quantity After 3 Months [4]: <0.05 (LOD) % w/w
MeOOSPO Quantity After 1 Month [4]: <0.04 (LOD) % w/w
MeOOSPO Quantity After 2 Months [4]: <0.04 (LOD) % w/w
MeOOSPO Quantity After 3 Months [4]: 0.05 % w/w
MeOOSPS Quantity After 1 Month [4]: 0.1 % w/w
MeOOSPS Quantity After 2 Months [4]: 0.2 % w/w
MeOOSPS Quantity After 3 Months [4]: 0.2 % w/w
MeOSSPO Quantity After 1 Month [4]: <0.02 (LOD) % w/w
MeOSSPO Quantity After 2 Months [4]: <0.02 (LOD) % w/w
MeOSSPO Quantity After 3 Months [4]: <0.02 (LOD) % w/w
Methyl malathion Quantity After 1 Month [4]: 0.06 % w/w
Methyl malathion Quantity After 2 Months [4]: 0.06 % w/w
Methyl malathion Quantity After 3 Months [4]: 0.06 % w/w
O,O-Me, Et Malathion analog Quantity After 1 Month [4]: 0.08 % w/w
O,O-Me, Et Malathion analog Quantity After 2 Months [4]: 0.07 % w/w
O,O-Me, Et Malathion analog Quantity After 3 Months [4]: 0.07 % w/w
Tetraethyl dithiodisuccinate Quantity After 1 Month [4]: 0.06 % w/w
Tetraethyl dithiodisuccinate Quantity After 2 Months [4]: 0.05 % w/w
Tetraethyl dithiodisuccinate Quantity After 3 Months [4]: 0.07 % w/w
Unknown (RRT = 0.06) Quantity After 1 Month [4]: <0.02 (LOD) % w/w
Unknown (RRT = 0.06) Quantity After 2 Months [4]: <0.02 (LOD) % w/w
Unknown (RRT = 0.06) Quantity After 3 Months [4]: 0.04 % w/w
Unknown (RRT = 0.25) Quantity After 1 Month [4]: <0.02 (LOD) % w/w
Unknown (RRT = 0.25) Quantity After 2 Months [4]: 0.06 % w/w
Unknown (RRT = 0.25) Quantity After 3 Months [4]: 0.12 % w/w
Unknown (RRT = 0.27) Quantity After 1 Month [4]: 0.10 % w/w
Unknown (RRT = 0.27) Quantity After 2 Months [4]: 0.38 % w/w
Unknown (RRT = 0.27) Quantity After 3 Months [4]: 0.76 % w/w
Unknown (RRT = 0.38) Quantity After 1 Month [4]: 0.04 % w/w
Unknown (RRT = 0.38) Quantity After 2 Months [4]: 0.04 % w/w
Unknown (RRT = 0.38) Quantity After 3 Months [4]: 0.04 % w/w
Storage stability (conclusion in words) (three (3) months at 5, 25, 30 and 40° C. conditions): storage stable
